Tests used:
[1] = tested on: Guinea Pig Tracheal Muscle; assay: Test with Guinea Pig Tracheal Muscle: relaxation of spontaneous tension; format: cell-based, male Hartley guinea pig; settings: Cavia porcellus; concentration exhibiting 50% relaxing activity, relaxing activity of 1 mM aminophylline taken as 100%, 37° C.
Experimental: Test with Guinea Pig Tracheal Muscle
The trachea was excised from a male Hartley guinea pig (450 to 550 g) to make chain preparations. The preparation was suspended in a bath containing the same Krebs-Henseleit solution as used in Test Example 1 (37° C.) through which a mixed gas of 95% O2 and 5% CO2 was bubbled. Isometric contractions of the preparation were recorded under a tension of 1 g.
The same test compounds as used in Test Example 1 were used.

Excised Aorta of Rat = assay: Test with Excised Aorta of Rat: relaxation of lasting contraction following KCl (30 mM) addition; format: cell-based, male Sprague Dawley rat; settings: rat thoracic aorta rings, 30 mM KCl contraction, 37° C.
Experimental: Test with Excised Aorta of Rat
The thoracic aorta was excised from a male Sprague Dawley rat (450 to 600 g) and cut into 2 mm wide ring preparations. Each preparation was suspended in 10 ml of an organ bath containing a Krebs-Henseleit solution (NaCl:119; KCl:4.8; CaCl2 ·2H2 O: 2.53; KH2 PO4 :1.2; MgSO4 ·7H2 O: 1.2; NaHCO3 : 24.8; glucose: 10 (mM); 37° C.) under a tension of 2 g, and a mixed gas of 95% O2 and 5% CO2 was bubbled therethrough. Isometric contractions of the preparation were recorded by means of an FD pick-up. […] The activity of a test compound to relax a lasting contraction following the KCl addition was evaluated by obtaining a 50% inhibitory concentration (IC50).
The compounds of the present invention obtained in the foregoing Examples and, for comparison, Cromakalim were used as test compounds.

[2] = tested on: histamine-induced increase in respiratory tract inner pressure; assay: Study on Antiasthmatic Activity: inhibition of histamine-induced increase in respiratory tract inner pressure; format: in vivo, male Hartley guinea pig; settings: Cavia porcellus; dose for 50% inhibition of histamine-induced increase in respiratory tract inner pressure; intraduodenal, anesthetized guinea pig
Experimental: Study on Antiasthmatic Activity
A mid-line incision was made in the neck of a male Hartley guinea pig (600 to 800 g, CRJ) under anesthesia with pentobarbitar (40 mg/kg, i.p.). The trachea, the left […], and the left carotid artery were exposed, and a cannula was inserted into each of them. The inner pressure of the respiratory tract was measured while applying artificial respiration through the tracheal cannula. The blood pressure was measured through the arterial cannula, and the heart rate was determined from the pulse. Pentobarbital for anesthesia maintenance was continuously administered through the venous cannula. A mid-line incision was made on the abdomen to expose the duodenum, and a cannula for intraduodenal administration was inserted thereinto. After the postoperative convalescence of 30 to 60 minutes, histamine (5 to 10 μg/kg) was intravenously administered every 10 minutes. After it was confirmed that a respiratory tract inner pressure rise reaction was stably obtained, a test compound in the form of a 0.3% CMC suspension was intraduodenally administered. The histamine dose was so selected that the respiratory tract inner pressure might rise to 20 to 40 cmH2 O after every lntravenous administration. After administration of the test compound, intravenous administration of histamine at 10 minutes intervals was continued. The histamine-induced increase in respiratory tract inner pressure after the administration of the test compound was compared with that before the administration.

| SMILES | IC50 [1] | IC50 (Excised Aorta of Rat) | ED50 [2] |
| --- | --- | --- | --- |
| CCC1(C)C=C(C(=S)NC)c2cc([N+](=O)[O-])ccc2O1 (stereo not shown) [Compound 90] | 2.9 nM | 0.18 nM |  |
| CNC(=S)C1=CC(C)(C)Oc2ccc([N+](=O)[O-])cc21 [Compound 8, N,2,2-Trimethyl-6-nitro-2H-1-benzopyran-4-carbothioamide] | 6.3 nM | 1.4 nM | 0.1 to 0.3 mg/kg |
| CNC(=O)C1CC(C)(C)Oc2ccc([N+](=O)[O-])cc21 (stereo not shown) [Compound 22, N-Methyl-3,4-dihydro-6-nitro-2,2-dimethyl-2H-1-benzopyran-4-carboxamide] | 36 nM | 14 nM | < 0.3 mg/kg |
| CCN(CC)C(=O)C1=CC(C)(C)Oc2ccc([N+](=O)[O-])cc21 [Compound 193] | 57 nM | 6000 nM | < 0.3 mg/kg |
| CNC(=S)C1=CC(C)(C)Oc2ccc(Br)cc21 [Compound 134] | 75 nM | 9.3 nM |  |
| CCCNC(=O)C1=CC(C)(C)Oc2ccc([N+](=O)[O-])cc21 [Compound 146] | 56 nM | 5.7 nM |  |
| CNC(=S)C1=CC2(CCCCC2)Oc2ccc([N+](=O)[O-])cc21 [Compound 91] | 38 nM | 0.14 nM |  |
| CN(C)C(=NC#N)C1=CC(C)(C)Oc2ccc([N+](=O)[O-])cc21 [Compound 11, N^2 -Cyano-N^1,N^1-dimethyl-6-nitro-2,2-dimethyl-2H-1-benzopyran-4-carboxamidine] | 54 nM | > 30000 nM | 0.1 mg/kg |
| CCCNC(=S)C1=CC(C)(C)Oc2ccc([N+](=O)[O-])cc21 [Compound 115] | 41 nM | 3 nM |  |
| CNC(=O)C1=CC(C)(C)Oc2ccc([N+](=O)[O-])cc21 [Compound 10, N-Methyl-6-nitro-2,2-dimethyl-2H-1-benzopyran-4-carboxamide] | 33 nM | 11 nM | < 0.1 mg/kg |
| CNC(=O)C1=CC2(CCCCC2)Oc2ccc([N+](=O)[O-])cc21 [Compound 186] | 11 nM | 0.042 nM |  |
| CNC(=S)C1=CC(C)(C)Oc2ccc(C#N)cc21 [Compound 3, N-Methyl-6-cyano-2,2-dimethyl-2H-1-benzopyran-4-carbothioamide] | 200 nM | 33 nM |  |
| CCC1(C)C=C(C(=O)NC)c2cc([N+](=O)[O-])ccc2O1 (stereo not shown) [Compound 181] | 16 nM | 2.1 nM | 0.1 to 0.3 mg/kg |
| CNC(=S)C1=CC(C)(C)Oc2ccc(C(F)(F)F)cc21 [Compound 104] | 37 nM | 2.6 nM |  |
| CC1(C)Oc2ccc(C#N)cc2[C@@H](N2CCCC2=O)[C@@H]1O (relative stereo) [Cromakalim, reference compound] | 790 nM | 180 nM | 1 to 3 mg/kg |
| CCNC(=S)C1=CC(C)(C)Oc2ccc([N+](=O)[O-])cc21 [Compound 113] | 11 nM | 3.7 nM |  |
| CC1(C)C=C(C(=S)NC2CC2)c2cc([N+](=O)[O-])ccc2O1 [Compound 137] | 22 nM | 3.7 nM |  |
| CN=C(NC#N)C1=CC(C)(C)Oc2ccc([N+](=O)[O-])cc21 [Compound 12, N-Cyano-N'-methyl-6-nitro-2,2-dimethyl-2H-1-benzopyran-4-carboxamidine] | 23 nM | 11 nM | 0.1 to 0.3 mg/kg |
| CNC(=S)C1=CC2(CCCC2)Oc2ccc([N+](=O)[O-])cc21 [Compound 128] | 50 nM | 0.037 nM |  |

Reference: patent publication US5412117A, “Benzopyran derivatives” (Chugai Seiyaku Kabushiki Kaisha, priority 1990, dated 1995)
